From ChEMBL document CHEMBL1132776, “(E) -6-(1-alkyloxyiminoalkyl)-5,8-dimethoxy-1,4-naphthoquinones: synthesis, cytotoxic activity and antitumor activity” (2000)
Values after ≈ are worked out from the molar mass of the structure shown.

Tests used:
CCRF S-180 = test: Percent ratio of treated to control mice after intraperitoneal injection of 1x10E7 S180 cells for antitumor activity was determined; assay type: functional, Mus musculus
L1210 = test: The compound was evaluated for antiproliferative activity against L1210 cell line; assay type: functional; conditions: Mus musculus, read-out: ED50 (the source's name)
A549 = test: The compound was evaluated for antiproliferative activity against A549 cell line; assay type: functional; conditions: Homo sapiens, read-out: ED50 (the source's name)
Mus musculus = species on record: Mus musculus; test: Survival ratio (SR) is the number of mice surviving after 80 days among 8 mice; assay type: functional

CCCCCCCCCCCCO/N=C(\CCCCCC)c1cc(OC)c2c(c1OC)C(=O)C=CC2=O gave a T/C (CCRF S-180) of 231%, an EC50 (L1210) of 0.193 µg/mL (≈ 0.376 µM) and an EC50 (A549) of over 10 µg/mL. For the same compound, the Survival ratio (Mus musculus) was 2.
With CCCCCO/N=C/c1cc(OC)c2c(c1OC)C(=O)C=CC2=O the T/C (CCRF S-180) was 388%, the EC50 (L1210) was 0.175 µg/mL (≈ 0.528 µM) and the EC50 (A549) was over 10 µg/mL. For the same compound, the Survival ratio (Mus musculus) was 5.
In the case of CO/N=C/c1cc(OC)c2c(c1OC)C(=O)C=CC2=O, the T/C (CCRF S-180) is reported as 318%, the EC50 (L1210) is reported as 0.109 µg/mL (≈ 0.396 µM) and the EC50 (A549) is reported as over 10 µg/mL. For the same compound, the Survival ratio (Mus musculus) was 2.
Work on CCCO/N=C/c1cc(OC)c2c(c1OC)C(=O)C=CC2=O yielded a T/C (CCRF S-180) of 229%, an EC50 (L1210) of 0.107 µg/mL (≈ 0.353 µM) and an EC50 (A549) of over 10 µg/mL. For the same compound, the Survival ratio (Mus musculus) was 2.
For CCCCCCCCCCCCO/N=C/c1cc(OC)c2c(c1OC)C(=O)C=CC2=O, the T/C (CCRF S-180) was 119%, the EC50 (L1210) was 0.311 µg/mL (≈ 0.724 µM) and the EC50 (A549) was over 10 µg/mL. It also gave a Survival ratio (Mus musculus) of 0.
Compound COc1cccc2c1C(=O)c1c(O)c3c(c(O)c1C2=O)C[C@@](O)(C(=O)CO)C[C@@H]3O[C@H]1C[C@H](N)[C@H](O)[C@H](C)O1 [DOXORUBICIN] has a T/C (CCRF S-180) of 315%, an EC50 (L1210) of 0.016 µg/mL (≈ 0.0294 µM) and an EC50 (A549) of 1.01 µg/mL (≈ 1.86 µM). For the same compound, the Survival ratio (Mus musculus) was 3.
Work on CCCCCCCO/N=C/c1cc(OC)c2c(c1OC)C(=O)C=CC2=O yielded a T/C (CCRF S-180) of 355%, an EC50 (L1210) of 0.213 µg/mL (≈ 0.593 µM) and an EC50 (A549) of over 10 µg/mL. It also gave a Survival ratio (Mus musculus) of 5.
In the case of CCCCCC/C(=N\OCCC)c1cc(OC)c2c(c1OC)C(=O)C=CC2=O, the T/C (CCRF S-180) is reported as 369%, the EC50 (L1210) is reported as 0.166 µg/mL (≈ 0.428 µM) and the EC50 (A549) is reported as over 10 µg/mL. For the same compound, the Survival ratio (Mus musculus) was 5.
For CCCCCC/C(=N\OC)c1cc(OC)c2c(c1OC)C(=O)C=CC2=O, the T/C (CCRF S-180) was 323%, the EC50 (L1210) was 0.192 µg/mL (≈ 0.534 µM) and the EC50 (A549) was over 10 µg/mL. The Survival ratio (Mus musculus) was 5.
Work on CCCCCC/C(=N\OCCCCC)c1cc(OC)c2c(c1OC)C(=O)C=CC2=O yielded a T/C (CCRF S-180) of 363%, an EC50 (L1210) of 0.224 µg/mL (≈ 0.539 µM) and an EC50 (A549) of over 10 µg/mL. It also gave a Survival ratio (Mus musculus) of 5.
Work on CCCCCCCCCO/N=C(\CCCCCC)c1cc(OC)c2c(c1OC)C(=O)C=CC2=O yielded a T/C (CCRF S-180) of 96%, an EC50 (L1210) of 1.15 µg/mL (≈ 2.43 µM) and an EC50 (A549) of over 10 µg/mL. For the same compound, the Survival ratio (Mus musculus) was 0.
CCCCCCCCCO/N=C/c1cc(OC)c2c(c1OC)C(=O)C=CC2=O showed a T/C (CCRF S-180) of 355%, an EC50 (L1210) of 0.19 µg/mL (≈ 0.49 µM) and an EC50 (A549) of over 10 µg/mL. The Survival ratio (Mus musculus) was 5.
For COc1cc(/C=N/OCc2ccccc2)c(OC)c2c1C(=O)C=CC2=O, the T/C (CCRF S-180) was 331%, the EC50 (L1210) was 0.264 µg/mL (≈ 0.751 µM) and the EC50 (A549) was over 10 µg/mL. The Survival ratio (Mus musculus) was 4.
Work on CCCCCCCO/N=C(\CCCCCC)c1cc(OC)c2c(c1OC)C(=O)C=CC2=O yielded a T/C (CCRF S-180) of 375%, an EC50 (L1210) of 0.162 µg/mL (≈ 0.365 µM) and an EC50 (A549) of over 10 µg/mL. For the same compound, the Survival ratio (Mus musculus) was 5.
